Experimental data published in ChEMBL document CHEMBL1201862, “PubChem BioAssay data set” (2004).
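Results reflect a 48-hour exposure of cells in 96-well plates to compound at five concentrations. At the GI50, growth is halved.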 Activity calls are given as the source filed them. No stated cut-off is given here; in the data, active = GI50 up to about 1.1 µM and inactive = higher.

Key:
Test in all cases: NCI-60 cell line screen, 48 h
[1] = test system: NCI/ADR-RES
[2] = test system: OVCAR-5
[3] = test system: SF-268
[4] = test system: NCI-H522
[5] = test system: HCT-116
[6] = test system: LOX IMVI
[7] = test system: HT-29
[8] = test system: COLO 205
[9] = test system: RPMI-8226
[10] = test system: ACHN
[11] = test system: CAKI-1
[12] = test system: M14
[13] = test system: RXF 393
[14] = test system: NCI-H226
[15] = test system: TK-10
[16] = test system: OVCAR-8
[17] = test system: SK-MEL-2
[18] = test system: A498
[19] = test system: DLD-1
[20] = test system: DMS-273

Measured: GI50

COc1cc2c(cc1OC)-c1cc3ccccc3c[n+]1CC2
inactive: [1] > 100 µM | [2] > 100 µM | [3] 27.5 µM | [4] 18.8 µM | [5] > 100 µM | [6] > 100 µM | [7] > 100 µM | [8] 37.6 µM | [9] 36.6 µM | [10] > 100 µM | [11] > 100 µM | [12] > 100 µM | [13] > 100 µM | [14] > 100 µM | [15] > 100 µM | [16] > 100 µM | [17] > 100 µM

O=C1Sc2ccccc2/C1=N/Nc1ccccc1[N+](=O)[O-]
inactive: [2] > 100 µM | [3] 36.6 µM | [4] > 100 µM | [5] > 100 µM | [6] > 100 µM | [7] > 100 µM | [18] > 100 µM | [8] > 100 µM | [9] > 100 µM | [10] 93.1 µM | [11] 77.3 µM | [12] > 100 µM | [14] > 100 µM | [15] > 100 µM | [16] 56.4 µM | [17] > 100 µM

Oc1ccc2ccccc2c1/N=N/c1cccc2ccccc12
inactive: [1] > 100 µM | [2] > 100 µM | [3] 55.5 µM | [4] 52.4 µM | [5] > 100 µM | [18] > 100 µM | [8] > 100 µM | [10] > 100 µM | [11] > 100 µM | [12] > 100 µM | [13] 65.3 µM | [14] > 100 µM | [15] > 100 µM | [16] 44.1 µM | [17] > 100 µM

N#Cc1ccc(-c2nc(C#N)c(N)o2)cc1
inactive: [1] > 10 µM | [3] > 10 µM | [4] > 10 µM | [5] > 10 µM | [6] > 10 µM | [7] > 10 µM | [8] > 10 µM | [9] > 10 µM | [10] > 10 µM | [11] > 10 µM | [12] > 10 µM | [13] > 10 µM | [14] > 10 µM | [15] > 10 µM | [16] > 10 µM

Nc1ccc(Sc2nnc(N)s2)cc1
inactive: [1] > 100 µM | [2] > 100 µM | [3] > 100 µM | [4] > 100 µM | [5] > 100 µM | [8] > 100 µM | [9] > 100 µM | [10] > 100 µM | [12] > 100 µM | [15] > 100 µM | [16] > 100 µM

O=C1CNc2cc(N3CCCCC3)ccc2N1
inactive: [1] > 100 µM | [2] > 100 µM | [4] > 100 µM | [7] 8.32 µM | [9] > 100 µM | [10] > 100 µM | [12] 66.1 µM | [14] 16.3 µM | [15] > 100 µM | [16] > 100 µM | [17] > 100 µM

O=C1C(=O)c2ccccc2C=C1[N+](=O)[O-]
inactive: [1] 23 µM | [2] > 100 µM | [3] 38.3 µM | [4] 34.9 µM | [5] 26.2 µM | [6] 25.8 µM | [7] > 100 µM | [18] > 100 µM | [8] > 100 µM | [9] 31 µM | [10] > 100 µM | [11] 87.9 µM | [12] 71.1 µM | [13] 24.4 µM | [14] > 100 µM | [15] > 100 µM | [16] 33.7 µM | [17] 28.2 µM

CCCCCCCCCCCCCCCCCc1cc(Cl)nc(Cl)n1
inactive: [1] > 100 µM | [2] > 100 µM | [3] > 100 µM | [6] > 100 µM | [7] > 100 µM | [9] 43.7 µM | [10] > 100 µM | [12] > 100 µM | [13] > 100 µM | [14] > 100 µM | [15] > 100 µM | [16] > 100 µM | [17] > 100 µM

COc1cc(O)c2c(c1)C(=O)c1cc(C)cc(O)c1C2=O [PHYSCION]
inactive: [19] > 100 µM | [2] > 100 µM | [3] > 100 µM | [4] 78.5 µM | [5] > 100 µM | [6] > 100 µM | [7] > 100 µM | [18] > 100 µM | [8] > 100 µM | [9] > 100 µM | [10] > 100 µM | [11] > 100 µM | [12] > 100 µM | [14] > 100 µM | [16] > 100 µM | [17] > 100 µM

O=C1N/C(=N/N=C/c2c[nH]c3ccccc23)N/C1=C\c1cccs1
inactive: [1] 55.3 µM | [2] > 100 µM | [3] > 100 µM | [4] > 100 µM | [5] 53.8 µM | [6] 56.9 µM | [7] 52.2 µM | [18] 16.2 µM | [8] > 100 µM | [9] 40.4 µM | [10] > 100 µM | [11] > 100 µM | [12] 75.3 µM | [13] 75.3 µM | [14] > 100 µM | [15] > 100 µM | [16] > 100 µM | [17] 45.5 µM

CCSc1nc(N/N=C/c2cccs2)c2cnn(CO)c2n1
inactive: [1] 3.91 µM | [2] 13.4 µM | [3] 6.22 µM | [4] 3.71 µM | [5] 5.01 µM | [7] 3.85 µM | [18] 2.18 µM | [8] 4.73 µM | [10] 6.07 µM | [11] 2.66 µM | [12] 6.11 µM | [13] 3.66 µM | [14] 3.1 µM | [15] 6.14 µM | [16] 4.16 µM | [17] 10.6 µM

c1ccc(CCn2cncn2)cc1
inactive: [19] > 100 µM | [20] > 100 µM | [2] > 100 µM | [3] > 100 µM | [4] > 100 µM | [5] > 100 µM | [7] > 100 µM | [8] > 100 µM | [10] > 100 µM | [12] > 100 µM | [14] > 100 µM | [15] > 100 µM

COc1cc(O)cc(/C=C/c2ccc(O)cc2)c1
inactive: [1] 38.9 µM | [2] > 100 µM | [3] 49.1 µM | [4] 30.1 µM | [5] 32 µM | [7] 40.4 µM | [18] 33.1 µM | [8] > 100 µM | [9] 4.07 µM | [10] 6.31 µM | [11] 33.7 µM | [12] 24.3 µM | [13] 72.8 µM | [14] 24.7 µM | [15] 29.4 µM | [16] 23.8 µM | [17] 52.7 µM
